Tested on: uptake of gentamicin into the mouse kidneys
Test: Gentamicin uptake in mouse kidneys following i.p. administration of the compound
Assay type: in vivo
Settings: for Effect of the inhibitors on the uptake of gentamicin into the mouse kidneys: 3 mg of inhibitor intraperitoneally in mice, as in Example 1 (FIG. 6), ranked among six inhibitors tested
Experimental: The effect of a compound, 2-[4-(2-aminoethyl)piperazin-1-yl]ethylamine (Aldrich, D2,340-8, lot 06028BO-332), according to the invention was tested in vivo. Gentamicin uptake in mouse kidneys following intraperitoneal (i.p.) administration of the compound was measured.
For normal application of radioactive gentamicin the following was performed: I.p. injection of 50 micrograms per kg of tritiated gentamicin with or without 3 mg of the inhibitor per mouse.
For competition of clinical doses of gentamicin 50 micrograms/kg of tritiated gentamicin plus 5 mg/kg of cold gentamicin (clinical dose) were injected in admixture with 3 mg total of 2-[4-(2-aminoethyl)piperazin-1-yl]ethylamine per mouse. A control received gentamicin only.
In this experiment 3 mg of the inhibitors 3-methylamino-1-(4-methylpiperazino)-2-propanole, 4-piperazinoaniline, piperazin-2-one-HCl, 2-[4-(2-aminoethyl)piperazin-1-yl]ethylamine, piperazine anhydrous, and 0.5 mg of 1-(3-chlorophenyl)piperazine diHCl (m-CPP), respectively, were administered intraperitoneally in mice (see FIG. 6) as described in Example 1. The effect of the inhibitors on the uptake of gentamicin into the mouse kidneys was determined by means of the assay described in Example 1.

Compound	Effect of the inhibitors on the uptake of gentamicin into the mouse kidneys	Inhibition (of gentamicin uptake in mouse kidneys) compared to the control (i.p., 50 micrograms/kg tritiated gentamicin plus 5 mg/kg cold gentamicin (clinical dose) in admixture with 3 mg total of compound per mouse, control received gentamicin only)
NCCN1CCN(CCN)CC1 [2-[4-(2-aminoethyl)piperazin-1-yl]ethylamine]	strongest gentamicin inhibitors	40%
C1CNCCN1 [piperazine anhydrous]	strongest gentamicin inhibitors	
Cl.O=C1CNCCN1 [piperazin-2-one-HCl]	strongest gentamicin inhibitors	

Source: US20070004727A1, “Use of compounds for the prevention of drug-induced cell toxicity” (Reception ApS c/o Ostysk Innovation A/S, priority 2003, published 2007)
